# Experimental data published in patent US8134015B2, “Compound inhibiting in vivo phosphorous transport and medicine containing the same” (Kyowa Hakko Kirin Co., Ltd., priority 2003, dated 2012).
# Assays:
# human NaPi-2a = biological target: T1, human NaPi-2a (Homo sapiens, UniProt Q06495); assay: Sodium-dependent phosphate uptake of Xenopus oocytes which expressed NaPi-2a (32P); format: cell-based; details: Xenopus oocytes expressing human NaPi-2a, FIG. 3, FIG. 4
# T1 construct: expressed in transfected cells
# T1 sequence (Q06495 1-639): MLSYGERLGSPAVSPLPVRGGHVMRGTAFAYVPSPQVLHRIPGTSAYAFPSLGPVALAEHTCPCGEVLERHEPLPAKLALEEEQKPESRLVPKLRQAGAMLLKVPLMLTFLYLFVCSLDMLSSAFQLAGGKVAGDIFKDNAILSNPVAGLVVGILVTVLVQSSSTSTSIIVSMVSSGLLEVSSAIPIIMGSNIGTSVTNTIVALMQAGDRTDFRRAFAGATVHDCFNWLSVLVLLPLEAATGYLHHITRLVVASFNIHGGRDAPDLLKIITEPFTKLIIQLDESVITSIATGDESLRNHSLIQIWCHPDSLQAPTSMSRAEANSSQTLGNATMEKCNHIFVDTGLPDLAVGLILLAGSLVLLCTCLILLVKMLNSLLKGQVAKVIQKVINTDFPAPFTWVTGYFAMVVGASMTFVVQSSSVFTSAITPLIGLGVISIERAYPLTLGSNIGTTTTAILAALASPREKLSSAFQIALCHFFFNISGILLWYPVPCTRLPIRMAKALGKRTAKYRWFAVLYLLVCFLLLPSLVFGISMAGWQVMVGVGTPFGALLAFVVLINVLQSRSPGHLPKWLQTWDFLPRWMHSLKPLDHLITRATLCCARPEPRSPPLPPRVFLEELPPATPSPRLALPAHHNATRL
# From the text: Experiment of Sodium-Dependent Phosphate Uptake of Xenopus oocytes which Expressed NaPi-2a
# In the test, a group with the addition of choline chloride (Choline Cl) was used as a negative control for nonspecific uptake, and PFA (phosphonoformic acid) was used as a positive control for phosphate transport inhibition.
# [1] = system: rabbit jejunal brush border membrane vesicles; assay: Nonspecific inhibitory activity against glucose absorption in rabbit jejunal brush border membrane vesicles (14C-glucose); format: biochemical; details: FIG. 2
# Protocol: (§1) Jejunal epithelium was obtained from New Zealand white male rabbits (7 weeks old, obtained from KITAYAMA LABES Co., Ltd. (Japan)), and brush border membrane vesicles were isolated by the calcium precipitation method described in Kanako Katai et al., J. Biochem. 121, 50-55, 1997, and Peerce, B. E. et al., Biochemistry 26, 4272-4279, 1987. Thereafter, for compound 29 and compound 68, the phosphate uptake inhibitory activity was measured using the same samples with ^32P radioactive phosphorus (manufactured by Daiichi Kagaku Inc. (Japan)) by the rapid filtration method described in Kanako Katai et al., J. Biochem. 121, 50-55, 1997. […] Further, in the same experiment, nonspective inhibitory activity against glucose absorption was determined using 14C-glucose (manufactured by Moravek Biochemical Inc. (US)). […] In both the experiments, a group with the addition of potassium chloride was used as a negative control for nonspecific uptake. All the test results given below were expressed in terms of average value±standard error. Student's t-test was used for a significant test of the control group and the test compound group.
# rat NaPi-2b = biological target: T2, rat NaPi-2b (Rattus norvegicus, UniProt Q9JJ09); assay: Sodium-dependent phosphate uptake of Xenopus oocytes which expressed NaPi-2b (32P); format: cell-based; details: for IC50: Xenopus oocytes expressing rat NaPi-2b, 32P radioactive phosphorus, read-out: IC50 (phosphate uptake inhibitory activity)
# T2 construct: expressed in transfected cells; host or cells: Xenopus oocytes injected with cRNA
# T2 sequence (Q9JJ09 1-695): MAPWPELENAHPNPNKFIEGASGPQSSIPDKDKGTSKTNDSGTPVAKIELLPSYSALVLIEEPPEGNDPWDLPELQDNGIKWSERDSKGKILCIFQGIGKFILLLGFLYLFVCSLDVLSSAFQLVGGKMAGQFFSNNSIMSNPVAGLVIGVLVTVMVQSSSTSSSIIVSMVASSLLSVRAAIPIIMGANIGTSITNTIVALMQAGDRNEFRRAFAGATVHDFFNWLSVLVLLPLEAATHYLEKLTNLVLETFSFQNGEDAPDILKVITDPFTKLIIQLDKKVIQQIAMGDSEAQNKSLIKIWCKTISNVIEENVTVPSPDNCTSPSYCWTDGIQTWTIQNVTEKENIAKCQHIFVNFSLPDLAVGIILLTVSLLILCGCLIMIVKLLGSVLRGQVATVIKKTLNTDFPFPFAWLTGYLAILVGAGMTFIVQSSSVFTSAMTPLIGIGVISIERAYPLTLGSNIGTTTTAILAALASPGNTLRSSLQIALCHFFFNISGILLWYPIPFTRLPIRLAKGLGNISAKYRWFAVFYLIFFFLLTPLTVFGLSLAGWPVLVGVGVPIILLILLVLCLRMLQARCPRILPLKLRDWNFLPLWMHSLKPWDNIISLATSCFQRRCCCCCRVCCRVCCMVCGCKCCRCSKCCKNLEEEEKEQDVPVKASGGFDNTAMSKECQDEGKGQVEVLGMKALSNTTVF
# Summary of the method: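 Percent inhibition at 300 μM and 100 μM comes from the same inhibition curve of 32P uptake. Assay used oocytes expressing rat NaPi-2b after 2 days of culture.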
# [2] = system: rabbit jejunal brush border membrane vesicles; assay: Sodium-dependent phosphate uptake of rabbit jejunal brush border membrane vesicles (32P, rapid filtration); format: biochemical; details: FIG. 1
# From the text: Pharmacological Test Example 2
# Experiment of Sodium-Dependent Phosphate Uptake of Rabbit Jejunal Brush Border Membrane Vesicles
# as §1
SMILES,phosphate uptake inhibitory activity against NaPi-2a (human NaPi-2a),nonspecific inhibitory activity against glucose absorption [1],IC50 (rat NaPi-2b) [nM],"phosphate uptake inhibitory activity against NaPi-2b (rat NaPi-2b; Xenopus oocytes, FIG. 4)",phosphate uptake inhibitory activity [2]
"COc1ccc(C(=O)Nc2ccc(Br)cc2C(=O)N/N=C/c2cccc(F)c2)cc1OC [Compound 29, N-[4-Bromo-2-(3-fluoro-benzylidene-hydrazinocarbonyl)-phenyl]-3,4-dimethoxy-benzamide]",had inhibitory activity,did not have the inhibitory activity,550,had inhibitory activity,concentration-dependent inhibitory activity
"COc1ccc(C(=O)Nc2ccc(Cl)cc2C(=O)N/N=C/c2ccc(C)cc2)cc1OC [Compound 68, N-[4-Chloro-2-(4-methyl-benzylidene-hydrazinocarbonyl)-phenyl]-3,4-dimethoxy-benzamide]",–,did not have the inhibitory activity,360,–,concentration-dependent inhibitory activity
